Experimental data published in patent US20120107423A1, “Methods of Using Inhaled Nitric Oxide Gas for Treatment of Acute Respiratory Distress Syndrome” (INO Therapeutics LLC, priority 2010, published 2012).

Columns and labels:
[1] = tested on: patients with moderately severe acute lung injury (ALI) / ARDS survivors; experiment: Pulmonary function tests at 6 months post-treatment in ARDS survivors (iNO 5 ppm vs placebo); type: in vivo, human
Method: (§1) A large-scale, randomized, blinded, placebo-controlled study was carried out in the Intensive Care Units (ICUs) of 46 US hospitals to evaluate the efficacy of low-dose (5 ppm) iNO in 385 patients with moderately severe Acute Lung Injury (ALI). The primary endpoint of this study was number of days alive and off assisted breathing.
(§2) Patients had moderately severe acute lung injury (ALI), defined by a modification of American-European Consensus Conference criteria (PaO2/inspired oxygen concentration [FiO2] ratio of ≦250 mm Hg), due to causes other than severe sepsis. Patients with evidence of non-pulmonary system failure at the time of randomization and sepsis-induced ARDS were excluded. Patients were also excluded if they had sustained hypotension requiring vasopressor support, hemodynamic profiles supporting severe sepsis, severe head injury, severe burns, or evidence of other significant organ system dysfunction at baseline.
(§3) Patients were randomly assigned to receive either inhaled placebo gas (nitrogen) or 5 ppm of iNO (INO Therapeutics Inc., Port Allen, La.). All patients, healthcare professionals, and investigators were blinded to the assigned treatment. Inhaled NO was administered via INOvent® delivery system (Datex-Ohmeda, Madison, Wis.) that blended treatment gas (nitrogen or NO at 100-ppm balance nitrogen) 1:20 with ventilator gases to achieve a target ppm value in the inspiratory limb of the ventilator.
(§4) All patients using the iNO delivery system received mechanical ventilatory support. Treatment continued with active or placebo gas until one of the following criteria were met: [1] end of trial (28 days); [2] death; or [3] adequate oxygenation (arterial oxygen saturation by pulse oximetry [SpO2]≧92% or PaO2 of ≧63 mm Hg) without treatment gas at ventilator settings of FiO2≦0.4 and positive end-expiratory pressure (PEEP) of ≦5 cm H2O. Decreases in treatment gas continued in 20% decrements (titrated down by 1 ppm for inhaled NO) every 30 minutes until either the treatment gas concentration reached 0% or oxygenation criteria were not satisfied. If oxygenation criteria were not met, treatment gas concentration was titrated up until they were again achieved. Increments of upward titration were determined by the clinician, based on degree of arterial desaturation.
Pulmonary function testing (PFT) at 6 months post-treatment was required in both iNO- and placebo-treated patients as part of the original study design. PFTs included forced expiratory volume in 1 second (FEV1), FEV1% predicted, forced vital capacity (FVC), FVC % predicted, the FEV1/FVC ratio, FEV1/FVC ratio % predicted, forced expiratory flow (FEF) from 25% to 75% of FVC (FEF25-75%), FEF25-75%% predicted, functional residual capacity (FRC), FRC % predicted, total lung capacity (TLC), TLC % predicted, CO diffusion, and CO diffusion % predicted.
(§5) All between-group differences in PFT results were evaluated using the Wilcoxon rank sum test. Between-group differences in baseline clinical and demographic characteristics were assessed with the Fisher's exact test and the chi-square test for categorical variables and with the Wilcoxon rank sum test for continuous variables. Baseline oxygenation and respiratory/oxygenation parameters in the two groups were compared using Wilcoxon rank sum tests. The areas under the curve (AUCs) of FiO2, PEEP, and PaO2/FiO2 ratio were calculated using the trapezoidal rule. The null hypothesis that the respective AUCs were normally distributed was rejected employing the Shapiro-Wilk test. A Wilcoxon rank sum test was utilized to assess the differences in each median AUC between treatment groups. A p value <0.05 was considered significant.
A total of 92 of the 302 survivors (30%) were capable of and participated in the 6-month follow-up pulmonary function analysis (iNO, n=51; placebo, n=41). The balance of surviving subjects was lost to follow-up for reasons unknown, and PFT data are not available. […]

[2] = tested on: patients with moderately severe acute lung injury (ALI) / ARDS survivors; experiment: Respiratory parameters during mechanical ventilation: cumulative exposure (AUC) over study gas administration; type: in vivo, human; details: for Duration of exposure: PaO2/FiO2 ratio: during study gas administration / length of mechanical ventilation
Method: Baseline oxygenation measures included PaO2, arterial partial pressure of CO2 (PaCO2), SpO2, FiO2, PEEP, PaO2/FiO2 ratio, […], tidal volume, and mean airway pressure. Respiratory parameters (FiO2, PEEP, and PaO2/FiO2 ratio) were recorded on case report forms every 12 hours during mechanical ventilation.
as §5

[3] = tested on: patients with moderately severe Acute Lung Injury (ALI); experiment: Safety results, adverse events in the initial 28-day study period; type: in vivo, human; details: iNO 5 ppm
Method: as §1
Safety results for the initial 28-day study period have been reported and are summarized briefly here. A total of 630 adverse events (AEs) were reported for patients treated with iNO versus 666 events for those who received placebo. Respiratory system AEs occurred in 51% versus 61% of patients receiving iNO and placebo, respectively, primarily due to higher frequencies of pneumonia, pneumothorax, and apnea in the placebo group.

[4] = tested on: patients with moderately severe Acute Lung Injury (ALI); experiment: Randomized, blinded, placebo-controlled 28-day study of low-dose (5 ppm) iNO, intent-to-treat analysis; type: in vivo, human
Method: as §1, §2, §3, §4

[5] = at STP; cited from earlier work
[6] = tested on: experimental animals and ARDS patients; details: cited from earlier work
ARDS patients = details: cited from earlier work
[7] = experimental animals and ARDS patients

## [N]=O [Inhaled NO, nitric oxide]
[1]; mean
  FRC, % predicted: 93.98 % predicted
  TLC: 5.54 L
  TLC, % predicted: 93.33 % predicted
[1]; mean (SD)
  CO diffusion: 18.25 (6.77) mL/min/mm Hg
  CO diffusion, % predicted: 71.02 (20.79) % predicted
  FEF25/75%, % predicted: 72.50 (27.71) % predicted
  FEV1, % predicted: 80.23 (21.21) % predicted
  FEV1/FVC: 77.45 (15.19) %
  FEV1/FVC, % predicted: 96.14 (13.79) % predicted
  FRC: 3.00 (0.94) L
  FVC: 3.36 (1.09) L
  FVC, % predicted: 83.78 (19.38) % predicted
[1]; mean (SD), iNO 5 ppm up to 28 days
  FEV1: 2.64 (0.91) L
[1]; mean (SD), listed as iNO
  FEV1, % predicted: significantly greater
  FEV1/FVC, % predicted: significantly greater
  FVC, % predicted: significantly greater
[1]; mean, listed as iNO
  TLC: significantly greater
  TLC, % predicted: significantly greater
[2]; mean ± SD
  Duration of exposure: PaO2/FiO2 ratio: 262 ± 407
[2]; mean ± SD, listed as iNO
  Duration of exposure: PaO2/FiO2 ratio: 2637±1729
[2]; during study gas administration, mean ± SD, N = 51
  Duration of exposure: FiO2: 6.34 ± 4.5
[2]; over the length of mechanical ventilation
  Cumulative exposure to FiO2, PEEP and PaO2/FiO2 ratio, versus placebo: less cumulative exposure to all three variables
[2]; over the length of mechanical ventilation, mean ± SD
  Duration of exposure, total FiO2: 6.3 ± 4.5 days
[2]; through day 28 (FIG. 2a-c)
  Aggregate per-patient changes from baseline in supplemental oxygen, PEEP, or PaO2/FiO2 ratio, versus placebo: no significant differences between groups
[3]
  Patients with respiratory system AEs: 51%
  Total adverse events (AEs) reported: 630 events
[4]; initial 24 hours of treatment, p<0.05, resolved by 48 hours
  Partial pressure of arterial oxygen (PaO2): significant increase
[4]; intent-to-treat
  Days alive and meeting oxygenation criteria for extubation, benefit versus control: no significant benefit
[4]; intent-to-treat, 5 ppm iNO, 385 patients
  Mortality, benefit versus control (nitrogen gas): no significant benefit
[4]; intent-to-treat, primary endpoint
  Days alive and off assisted breathing, benefit versus control: no significant benefit
[5]
  Solubility in water: about 2 mM
[6]; correlated with NO-dependent inhibition of platelet P-selectin expression
  Formation of platelet-leukocyte aggregates: significantly inhibiting
[6]; [7]
  Pulmonary concentrations of interleukin (IL)-8: significantly decreases
  Pulmonary concentrations of neutrophils: significantly decreases
ARDS patients
  H2O2 production by polymorphonuclear leukocytes: significantly decrease
  IL-6 concentration in BAL fluid: decreased
  IL-8 concentration in BAL fluid: decreased
  β2-integrin CD11b/CD18 expression by polymorphonuclear leukocytes: significantly decrease
